# According to ChEMBL document CHEMBL1139628, “Beta-lactam compounds as apparently uncompetitive inhibitors of HIV-1 protease” (Bioorg Med Chem Lett, 2005):
# Assays:
# [1] = molecular target: Human immunodeficiency virus type 1 protease (Human immunodeficiency virus 1) (UniProt Q72874); experiment: Percent inhibition against human immunodeficiency virus 1 protease; parameters: concentration or dose not given beside the values; conditions: concentration not given here
# [2] = molecular target: Human immunodeficiency virus type 1 protease (Human immunodeficiency virus 1) (UniProt Q72874); experiment: Inhibitory activity against human immunodeficiency virus type I protease
# [3] = molecular target: Human immunodeficiency virus type 1 protease (Human immunodeficiency virus 1) (UniProt Q72874); experiment: Ratio of Michaelis-Menten constant and catalytic constant against human immunodeficiency virus type I protease
# [4] = molecular target: Human immunodeficiency virus type 1 protease (Human immunodeficiency virus 1) (UniProt Q72874); experiment: Catalytic constant against human immunodeficiency virus typeI protease
# [5] = molecular target: Human immunodeficiency virus type 1 protease (Human immunodeficiency virus 1, UniProt Q72874); experiment: Inhibition constant against human immunodeficiency virus 1 protease
# [6] = molecular target: Human immunodeficiency virus type 1 protease (Human immunodeficiency virus 1) (UniProt Q72874); experiment: Inhibitory activity against human immunodeficiency virus typeI protease
Compound,inhibition [1],further results
O=C(NCC1CCCCC1)C(c1ccccc1)N1CCC1=O (configuration not stated),79%,–
CCCC(C(=O)NCC1CCCCC1)N1C(=O)CC1C(=O)NC(Cc1ccccc1)C(=O)OC (configuration not stated),71%,–
CC1CC(=O)N1C(C(=O)NCc1ccccc1)c1ccccc1 (configuration not stated),67%,–
CCCCNC(=O)C(c1ccccc1)N1C(=O)CC1C(=O)OCc1ccccc1 (configuration not stated),71%,–
COC(=O)C(Cc1ccccc1)NC(=O)C1C(O)C(=O)N1C(C(=O)NCC1N=Cc2cncnc21)c1ccccc1 (configuration not stated),97%,inhibition [2]: 80 µM; Ratio [3]: 0.155 mM⁻¹ s⁻¹; K cat [4]: 0.1 s⁻¹; Ki [5]: 63.2 µM
COC(=O)C(Cc1ccccc1)NC(=O)C1CC(=O)N1C(C(=O)NCC(C)C)c1ccccc1 (configuration not stated),71%,–
COC(=O)CNC(=O)C(c1ccccc1)N1C(=O)CC1C(=O)OCc1ccccc1 (configuration not stated),97%,inhibition [6]: 1000 µM; Ratio [3]: 0.157 mM⁻¹ s⁻¹; K cat [4]: 0.144 s⁻¹; Ki [5]: 1140 µM
O=C(OCc1ccccc1)C1CC(=O)N1C(C(=O)NCc1ccccc1)c1ccccc1 (configuration not stated),119%,–
CC1CC(=O)N1C(C(=O)NCC1CCCCC1)c1ccccc1 (configuration not stated),83%,–
O=C(NCC1N=Cc2cncnc21)C(Cc1ccccc1)N1C(=O)CC1C(=O)OCc1ccccc1 (configuration not stated),66%,–
COC(=O)CNC(=O)[C@H](c1ccccc1)N1CCC1=O,70%,–
CC1C(=O)N(C(C(=O)NCC2CCCCC2)c2ccccc2)C1C(=O)OCc1ccccc1 (configuration not stated),92%,–
COC(=O)CNC(=O)C(Cc1ccccc1)N1C(=O)CC1C(=O)OCc1ccccc1 (configuration not stated),67%,–
COC(=O)CNC(=O)[C@H](Cc1ccccc1)N1C(=O)C[C@H]1C(=O)N[C@@H](Cc1ccccc1)C(=O)OC,69%,–
CC1CN(C(C(=O)NCC2N=Cc3cncnc32)c2ccccc2)C1=O (configuration not stated),76%,–
O=C(NCC1N=Cc2cncnc21)C(c1ccccc1)N1CCC1=O (configuration not stated),68%,–
O=C(NCc1ccccc1)C(c1ccccc1)N1C(=O)CC1c1ccccc1 (configuration not stated),75%,–
CCCCNC(=O)C(CCC)N1C(=O)CC1c1ccccc1 (configuration not stated),93%,–
CCC[C@@H](C(=O)NCC(=O)OC)N1C(=O)CC1C(=O)N[C@@H](Cc1ccccc1)C(=O)OC (some centres not stated),103%,–
CCCCNC(=O)C(c1ccccc1)N1C(=O)CC1c1ccccc1 (configuration not stated),63%,–
CCCC(C(=O)NCC(=O)OC)N1C(=O)C(C)C1C(=O)OCc1ccccc1 (configuration not stated),87%,–
O=C(NCC1N=Cc2cncnc21)C(c1ccccc1)N1C(=O)CC1c1ccccc1 (configuration not stated),78%,–
CCCC(C(=O)NCC1N=Cc2cncnc21)N1C(=O)CC1C(=O)OCc1ccccc1 (configuration not stated),83%,–
CCCC(C(=O)NCC1N=Cc2cncnc21)N1CCC1=O (configuration not stated),74%,–
CCC[C@@H](C(=O)NCC(=O)OC)N1C(=O)C[C@H]1c1ccccc1,68%,–
CCCCNC(=O)C(Cc1ccccc1)N1C(=O)CC1c1ccccc1 (configuration not stated),74%,–
O=C(OCc1ccccc1)C1CC(=O)N1C(C(=O)NCC1N=Cc2cncnc21)c1ccccc1 (configuration not stated),97%,inhibition [2]: 60 µM; Ratio [3]: 0.151 mM⁻¹ s⁻¹; K cat [4]: 0.126 s⁻¹; Ki [5]: 60.3 µM
CCCCNC(=O)C(c1ccccc1)N1C(=O)CC1C(=O)NC(Cc1ccccc1)C(=O)OC (configuration not stated),86%,–

# The next lines start with results.
inhibition [1],Compound,further results
66%,O=C(NCC1CCCCC1)C(Cc1ccccc1)N1CC(O)C1=O (configuration not stated),–
71%,CC1CN(C(Cc2ccccc2)C(=O)NCC2N=Cc3cncnc32)C1=O (configuration not stated),–
65%,O=C(NCc1ccccc1)C(Cc1ccccc1)N1CCC1=O (configuration not stated),–
86%,CC1CN(C(C(=O)NCc2ccccc2)c2ccccc2)C1=O (configuration not stated),–
62%,CC1CC(=O)N1C(Cc1ccccc1)C(=O)NCC1C=Nc2cncnc21 (configuration not stated),–
68%,COC(=O)C(Cc1ccccc1)NC(=O)C1CC(=O)N1C(Cc1ccccc1)C(=O)NCC(C)C (configuration not stated),–
76%,CC1CN(C(Cc2ccccc2)C(=O)NCC2CCCCC2)C1=O (configuration not stated),–
71%,CC1CC(=O)N1C(Cc1ccccc1)C(=O)NCC1CCCCC1 (configuration not stated),–
72%,CC(C)CNC(=O)C(Cc1ccccc1)N1CC(C)C1=O (configuration not stated),–
65%,CC(C)CNC(=O)C(Cc1ccccc1)N1CCC1=O (configuration not stated),–
78%,CCCCNC(=O)C(Cc1ccccc1)N1CC(C)C1=O (configuration not stated),–
63%,COC(=O)CNC(=O)[C@H](c1ccccc1)N1C[C@H](C)C1=O,–
